Series [1] deals with post-operative pain. Also on record: species or system human. The note with it: in vivo.
In series [2] the test system is post-operative pain. The note with it: in vivo.

“And” between values parts separate entries of the source, which are not always exact repeats. Equal entries are not always repeated.

For the compound `CCCCN1CCCCC1C(=O)Nc1c(C)cccc1C` (stereo not shown) [Marcaine], the “pain level on the visual analog pain scale” value in series [1] was 5-6 /10 and 4 /10. Also, in series [2], the “pain on the visual analog pain scale” value is 3-4 /10, the “requirement for patient controlled analgesic (PCA) administration during hospitalization” value is recorded as “did not require any patient controlled analgesic (PCA) administration” and the “signs of infection at the previous infusion catheter sites” value was “without signs of infection”.
